Assay results published in patent publication US9181309B1, “Peptide regulation of maize defense responses” (The United States of America, as represented by the …, priority 2011, dated 2015).

Legend:
Cotesia marginiventris = test: Olfactometer assay of parasitoid wasp attraction to pretreated leaves; format: in vivo; settings: naive C. marginiventris
Description: The generalist parasitoid Cotesia marginiventris attacks many Lepidopteran species including S. exigua and is attracted to herbivory-induced maize volatiles (Turlings et al., Science 250:1251, 1990). Precisely which components are attractive has been difficult to determine, and the wasps respond strongly to unidentified minor components when subjected to gas chromatograph-coupled electroantennography (Gouinguene et al., J Chem Ecol. 31:1023, 2005). To determine whether the ZmPep3-induced blend was attractive to naïve C. marginiventris, olfactometer assays were conducted with leaves pretreated with ZmPep3, Gln-18:3 or water for 16 h. To ensure that any preference was due to elicited plant responses and not to an inherent attraction or repellence to any treatment substance, leaves treated at time of assay were used as controls. […] Thus, ZmPep3-regulated responses are sufficient to generate effective indirect defenses against Lepidopteran herbivores.

[1] = system: jasmonic acid and ethylene production in maize leaves; test: Phytohormone (JA, ET) production in treated leaves; format: in vivo, Zea mays; settings: low equivalent quantities of either elicitor
Description: A further embodiment is ZmPEP3 regulated production of defense-related metabolites. The elicitor-induced phytohormones JA and ethylene (ET) function as signals integral to initiation of protective responses against pathogens and herbivores (Howe and Jander, Annu Rev Plant Biol. 59:41, 2008).

[2] = system: herbivore defense genes in maize leaves; test: Real time qPCR / qRT-PCR of defense and phytohormone biosynthesis genes in treated leaves
[3] = system: defense metabolites in maize leaves; test: Accumulation of defense metabolites within treated leaves (internal pools); format: in vivo, Zea mays; settings: following treatment
Description: Induced terpene production is vital to anti-herbivore defenses in many plant species (Unsicker et al., Curr Opin Plant Biol. 12:479, 2009; Tholl, Curr Opin Plant Biol. 9:297, 2006; Keeling and Bohlmann, New Phytol 170:657, 2006). […] Expression of genes encoding the relevant biosynthetic enzymes, Anthranilic Acid Methyl Transferase 1 (AAMT1) and Indole-Glycerol Phosphate Lyase (IGL) were induced by both peptide and the insect elicitor ([…]., Plant Physiol 153:1795, 2010; Frey et al., Proc Natl Acad Sci USA. 97:14801, 2000). In addition to proteinaceous defenses, maize benzoxazinoids contribute to direct defenses against both herbivores and pathogens ([…] Agric Food Chem 57:1677, 2009). […] Oikawa et al., Phytochemistry. 56:669, 2001; Huffaker et al., Plant Physiol. 155:1325, 2011). […] It is hypothesized that simultaneous activation of both IGL and BX1 by ZmPep3 results in increased flux through the benzoxazinoid pathway to produce HDMBOA-Glc.

[4] = system: defense metabolites in maize leaves; settings: in vivo; cited from earlier work
[5] = system: Aspergillus niger, Trichoderma viride, Rhizopus sp., Penicillium sp., Aspergillus flavus and Fusarium graminearum; format: cell-based, fungi isolated from germinating maize kernels; settings: for effect on fungal growth: 1 mM in PDA; for growth of fungal pathogens: 10 and 3.3 mM in PDA
[6] = system: Pseudomonas syringae pv. tomato DC3000 and Xanthomonas campestris pv. vesicatoria; format: cell-based

Question: For `CC/C=C\C/C=C\C/C=C\CCCCCCCC(=O)N[C@@H](CCC(N)=O)C(=O)O` [Gln-18:3, N-Linolenoyl-L-glutamine, reference compound], which “wasp preference for leaves pretreated 16 h vs leaves treated at time of assay” value (Cotesia marginiventris) is on record?
Answer: did not display a statistically significant preference

Question: What about the “JA and ET synthesis” value [1] of the same compound?
Answer: elicitation of JA and ET synthesis

Question: And the “BX1 and BX2 expression by qRT-PCR” value ([2]; 12 h post-treatment)?
Answer: expressed

Question: What about the “expression of genes encoding Terpene Synthases (TPS) 10 and 23” value ([2]; equivalent molar concentrations) of the same compound?
Answer: strongly activate expression

Question: What about the “expression of AAMT1 and IGL genes” value ([2]; in vivo) of the same compound?
Answer: induced

Question: What about the “accumulation of transcripts for ACC Oxidase, Allene Oxide Synthase and Allene Oxide Cyclase” value ([2]; low equivalent quantities of elicitor) of the same compound?
Answer: significantly increased accumulation of transcripts

Question: What about the “anthranilate and indole in leaves” value [3] of the same compound?
Answer: increased

Question: Which “HDMBOA-Glc induction (literature)” value [4] does the source give for `CC/C=C\C[C@H]1C(=O)CC[C@@H]1CC(=O)O` [JA, jasmonic acid] here?
Answer: induced

Question: For `C=CC(C)(O)CCC=C(C)CCC=C(C)C` (centres unmarked) [Nerolidol, nerolidol], which “fungal (microbial) growth at any concentration” value ([5]; 10 mM to 0.3 mM) is on record?
Answer: did not limit microbial growth

Question: And the “sporulation of all fungi” value ([5]; all concentrations tested)?
Answer: strong inhibitor of sporulation

Question: And the “bacterial (microbial) growth at any concentration” value [6]?
Answer: did not limit microbial growth

Question: What does the source list for `C[C@@H]1[C@H](O)[C@@H](C)/C=C/C=C/C=C/C=C/C=C/C=C/C=C/[C@H](O[C@@H]2O[C@H](C)[C@@H](O)[C@H](N)[C@@H]2O)C[C@@H]2O[C@](O)(C[C@@H](O)C[C@@H](O)[C@H](O)CC[C@@H](O)C[C@@H](O)CC(=O)O[C@H]1C)C[C@H](O)[C@H]2C(=O)O` [amphotericin B, reference compound]?
Answer: fungal growth on antimycotic-supplemented medium ([5]; three days after inoculation): have not spread from the center well; bacterial growth on antimycotic-supplemented medium [6]: proliferated unaffected

Question: With `c1ccc2[nH]ccc2c1` [indole] as the compound, how does the “effect on fungal growth” value [5] read?
Answer: moderate limiting effect

Question: What about the “growth of fungal pathogens” value [5] of the same compound?
Answer: prevented growth

Question: And the “bacterial growth at the lowest concentration tested” value [6]?
Answer: particularly effective at limiting bacterial growth

Question: What about the “growth of bacterial pathogens” value [6] of the same compound?
Answer: prevented growth

Question: What does the source list for `C=CC(C)(O)CCC=C(C)C` (centres unmarked) [linalool]?
Answer: effect on fungal growth [5]: reduced; growth of fungal pathogens [5]: prevented growth; effect on bacterial (microbial) growth [6]: reduced; growth of bacterial pathogens [6]: prevented growth

Question: With “ZmPEP1: previously identified maize plant elicitor peptide VRRRPTTPGRPREGSGGNGGNHH (SEQ ID NO: 1) (Zea mays)” as the compound, how does the “HDMBOA-Glc induction (literature)” value [4] read?
Answer: induced

Question: Which results are given for hexenal?
Answer: effect on fungal growth [5]: reduced; growth of fungal pathogens [5]: prevented growth; effect on bacterial (microbial) growth [6]: reduced; growth of bacterial pathogens [6]: prevented growth
